Data published in patent US20050038035A1, “Heterocyclic amide compounds as apolipoprotein b inhibitors” (priority 2001, published 2005).

Experiments:
Apo B secretion = assay: Test 1: Measurement of Inhibition of Apo B Secretion (HepG2 cells, ELISA of medium); assay type: cell-based; details: Homo sapiens, 10^−8 M test compound, 15-hour incubation, 0.1% DMSO treated cells as controls
Description: HepG2 cells were seeded in Eagles medium containing 10% fetal calf serum (FCS) at a density of 30000 cells/well in 96-well plates and allowed to grow for 3 days before treatment. At this time, the medium was replaced with fresh medium containing 0.1% dimethyl sulfoxide (DMSO) and the indicated concentrations of a test compound. After 15-hour incubation, the amount of Apo B and Apo AI accumulated in the media was determined by ELISA.
The assay was carried out at ambient temperature. A flat bottomed micro ELISA plate (manufactured by Nunc) was coated with an anti Apo B monoclonal antibody solution ([…] in 0.05% carbonate buffer, pH 9.6).by adding the antibody solution at a volume of 100 μl per well. After 1-hour incubation on a plate mixer, the unbound materials were removed by washing the well 3 times with a washing buffer (phosphate buffered saline, pH 7.2 containing 0.1% bovine serum albumin and 0.05% Tween-20). Then 20 μl of […] and 100 μl of a solution of peroxidase coupled anti Apo B antibody were added. After 1-hour incubation on a plate mixer, washing was performed 3 times to remove the unbound materials. A freshly prepared substrate solution (2.5 mg/ml ortho-phenylene diamine and 0.018% H2O2 in 0.11 M Na2HPO4-0.044 M sodium citrate buffer, pH 5.4) at a volume of 200 μl was then added to each well. After 20-minute incubation, the enzyme reaction was terminated by adding 50 μl of 0.5 M sulfuric acid. Absorbance of each well was determined at 490 nm using a microplate reader. Apo B concentration was calculated from a standard curve generated from purified Apo B standard that was run in parallel in the same plate. Inhibition of Apo B secretion by the test compound is calculated taking 0.1% DMSO treated cells as controls.
Measurement of Apo AI was performed similar to that of Apo B, except for diluting the sample 11-fold with a dilution buffer (phosphate buffered saline, pH 7.2 containing 0.5% bovine serum albumin and 0.05% Tween-20).
Apo B secretion inhibitors are identified as compounds that decrease Apo B secretion without affecting the secretion of Apo AI.

ddY-mice [1] = assay: Test 3: Lipid Lowering Effect on ddY-Mice (olive oil load, plasma TG elevation); assay type: in vivo; details: male ddY-mice fasted about 16 hours, oral, 0.32 mg/kg in olive oil (10 ml/kg), 2 hours; (TG increase in drug treated group/TG increase in control group)×100
Description: Male ddY-mice were housed in temperature- and humidity-controlled rooms and fed with laboratory chow. The animals were randomized according to their body weight and food was deprived about 16 hours before experiment. Baseline blood sample was collected from the retro orbital venous plexus then the animals were orally dosed with drugs in olive oil (10 ml/kg). For control group, 10 ml/kg of olive oil was loaded orally. Blood samples were drawn at 2 hours after drug administration for the measurement of triglyceride (TG) elevation. Plasma TG was determined by conventional enzyme method (The triglyceride E-test Wako).
Lipid lowering effects were shown in percent of the TG increase in drug treated group, relative to the TG increase in control group. Lipid lowering effect (%)=(TG increase in drug treated group/TG increase in control group)×100

ddY-mice [2] = assay: Test 2: Lipids Lowering Effect on ddY-Mice (plasma cholesterol and triglyceride); assay type: in vivo; details: male ddY-mice, oral, 3.2 mg/kg in 0.5% methylcellulose, relative to baseline; for Cholesterol (% of 0 hr) 2 hr: plasma total-cholesterol 2 hours after administration; for Triglyceride (% of 0 hr) 2 hr: plasma triglyceride 2 hours after administration
Description: Male ddY-mice were housed in temperature- and humidity-controlled rooms and fed with laboratory chow. The animals were randomized according to their body weight and deprived of food just before the experiment. A blood sample (baseline blood sample) was collected from the retro orbital venous plexus before administration of the test drug, and then the animals were orally dosed with the test drug in a vehicle (aqueous solution of 0.5% methylcellulose). Blood samples were drawn at 2 hours after drug administration for the measurement of cholesterol and triglyceride.
Plasma total-cholesterol and plasma triglyceride were determined by conventional enzyme methods using commercially available kits. The cholesterol CII-Test Wako (Wako Pure Chemical Industries, Ltd.) was used for the measurement of cholesterol, and the triglyceride E-test Wako (Wako Pure Chemical Industries, Ltd.) was used for the measurement of triglyceride.
Lipids lowering effects were shown in percent relative to the baseline level (level at 0 hr).

Compound | inhibition at 0.01 µM (Apo B secretion) | Lipid lowering effect (%) (ddY-mice [1]) | Cholesterol (% of 0 hr) 2 hr (ddY-mice [2]) | Triglyceride (% of 0 hr) 2 hr (ddY-mice [2])
N#Cc1cccc(CN2CCN(c3ccc(NC(=O)C4=C(c5ccc(C(F)(F)F)cc5)CCCC4)cn3)CC2)c1 [Example 212, N-{6-[4-(3-cyanobenzyl)-1-piperazinyl]-3-pyridinyl}-2-[4-(trifluoromethyl)phenyl]-1-cyclohexene-1-carboxamide] | 84% | 55% | – | –
Cc1ccc(-c2ccc(C)cc2C(=O)Nc2ccc(NCCc3cccc(N)n3)cc2)cc1 [Example 53, N-(4-{[2-(6-amino-2-pyridinyl)ethyl]amino}phenyl)-4,4′-dimethyl-1,1′-biphenyl-2-carboxamide] | 84% | – | 71 % of 0 hr | 17 % of 0 hr
Cc1ccc(-c2ccc(Cl)cc2)c(C(=O)Nc2ccc(NCCc3cccc(N)n3)cc2)c1 [Example 55, N-(4-{[2-(6-amino-2-pyridinyl)ethyl]amino}phenyl)-4′-chloro-4-methyl-1,1′-biphenyl-2-carboxamide] | 86% | – | 75 % of 0 hr | 16 % of 0 hr
Cc1ccc(-c2ccc(F)cc2)c(C(=O)Nc2ccc(NCCc3cccc(N)n3)cc2)c1 [Example 56, N-(4-{[2-(6-amino-2-pyridinyl)ethyl]amino}phenyl)-4′-fluoro-4-methyl-1,1′-biphenyl-2-carboxamide] | 93% | – | 81 % of 0 hr | 31 % of 0 hr
O=C(Nc1ccc(NCCc2ccccn2)cc1)C1=C(c2ccc(C(F)(F)F)cc2)CCCCC1 [Example 232, N-(4-{[2-(2-pyridinyl)ethyl]amino}phenyl)-2-[4-(trifluoromethyl)phenyl]-1-cycloheptene-1-carboxamide] | 93% | 29% | – | –
Cc1ccc(-c2ccc(Cl)cc2)c(C(=O)Nc2ccc(NCCc3ccccn3)cc2)c1 [Example 31, 4′-chloro-4-methyl-N-(4-{[2-(2-pyridinyl)ethyl]amino}phenyl)-1,1′-biphenyl-2-carboxamide] | 96% | – | 86 % of 0 hr | 36 % of 0 hr
Cc1ccc(C(=O)Nc2ccc(NCCc3ccccn3)cc2)c(-c2ccc(C(F)(F)F)cc2)c1 [Example 44, 5-methyl-N-(4-{[2-(2-pyridinyl)ethyl]amino}phenyl)-4′-(trifluoromethyl)-1,1′-biphenyl-2-carboxamide] | 83% | – | 80 % of 0 hr | 25 % of 0 hr
Cc1ccc(C(=O)Nc2ccc(NCCc3ccccn3)cc2)c(-c2ccc(F)cc2)c1 [Example 46, 4′-fluoro-5-methyl-N-(4-{[2-(2-pyridinyl)ethyl]amino}phenyl)-1,1′-biphenyl-2-carboxamide] | 94% | – | 79 % of 0 hr | 19 % of 0 hr
